Reference: patent publication US20080293699A1, “Inhibitors of thapsigargin-induced cell death” (priority 2007, published 2008)
Entries after “also recorded” stand apart in the source; their conditions may differ. Like-named read-outs stand apart in the source and are kept apart here.

Tests used:
CSM14.1 cells = test: Primary HTS assay: ATP content (ATPlite) of undifferentiated CSM14.1 cells challenged with thapsigargin; format: cell-based, rat; details: for Activity against thapsigargin-induced cell death / cell protection: cell death assay used for primary screening; for IC50: thapsigargin-induced death of undifferentiated CSM14.1, ATP content
Excerpt: For convenience, and because transient reductions in temperature that might be associated with large screening experiments could restore Large T activity, we elected to develop our HTS using undifferentiated CSM14.1 cells, with the plan to then confirm hits using differentiated cells. For monitoring cell death, we used a commercially available bioluminescence reagent that determines intracellular ATP content, without requirement for complicated cell processing steps (ATPlite, Perkin Elmer). Thus, ATP was used as a surrogate indicator of cell survival for the primary assay.
Undifferentiated or differentiated CSM14.1 cells were plated at a density of 3,000 cells/well in 40 μL DMEM medium (containing 10% serum, 1 mM L-glutamine, and antibiotics) in 96 well flat-bottom microtiter plates composed of polystrene (Greiner Bio One, polystyrene, white wall, flat bottom, lumitrac, high binding). After overnight incubation at 32° C., DMSO (0.5% v/v) or 100 uM Salubrinal (Sal) in DMSO was delivered. After 2 hrs, 5 uL of a stock solution of 150 uM TG in DMEM medium containing 0.75% (v:v) DMSO to achieve a final concentration of approximately 15 uM. After culturing for 24 hrs, cellular ATP content was measured by addition of 20 uL per well of ATPlite solution (Perkin-Elmer), and then the plates were incubated for three minutes at room temperature, before reading with a Microplate Luminometer (BD Pharmingen Moonlight model 3096).
To determine the reproducibility of the ATP content assay, we prepared a 96-well plate in which half the wells received TG plus DMSO (assay minimum) and half received TG plus Salubrinal (assay maximum), then performed the ATP content studies using undifferentiated CSM14.1 cells (FIG. 6). CSM14.1 cells were cultured overnight at 3,000 cells per well in 96-well flat-bottom plates, then either DMSO (0.5% final concentration) or Salubrinal (100 μM) in DMSO (0.5% final concentration) was added to half the well (48 each). After two hrs, TG was added to all wells (15 μM final). Cells were cultured for 24 hrs, then the ATP content was measured using the ATPlite luminogenic assay. We then adapted this assay to the high-throughput environment, using a Biomex™ FX liquid handler for automated dispensing of assay components into microwells of 96-well plates. First, undifferentiated CSM14.1 cells were grown at 32° C. in DMEM medium supplemented with 10% fetal bovine serum (FBS), 1% penicillin/streptomycin, and 1% L-glutamine in 150 mm×25 mm polystyrene culture dishes to produce approximately 3×10^6 cells. Second, CSM14.1 cells were recovered from cultures by trypsinization when at 80-90% confluence, and suspended at 7.5×10^4 cells/mL in DMEM medium containing 2% FBS, 1 mM L-glutamine, and antibiotics 100 IU penicillin 100 μg/ml streptomycin. Third, the cell suspension was then delivered at 40 μL per well of 96-well plastic microtiter plates (Greiner Bio One, polystyrene, white wall, flat bottom, lumitrac, high binding, cat #655074), and the plates were cultured overnight at 32° C. in a humidified atmosphere in 95% air: 5% CO2. Fourth, using the automated liquid handler, 5 μL of test compounds in 10% DMSO were added to wells in columns 2-11 of the 96-well plates (leaving columns 1 and 12 intact) to achieve an approximate final concentration of 15 μg/mL test compound and a final concentration of 1% DMSO. Fifth, 5 μL of 1 mM Salubrinal in a solution of 10% DMSO:90% DMEM was added to wells of column 1/rows A-D of each plate, while 5 μL of 10% DMSO:90% DMEM solution was added to wells corresponding to column 1/rows E-H and to all wells in column 12. Sixth, the plates were returned to culture.

phospho-c-Jun = test: Immunoblotting of thapsigargin-induced c-Jun phosphorylation in CSM14.1 cells; format: cell-based, rat; details: immunoblotting with phospho-specific antibody, 10 μM, 25 μM hits
Excerpt: After confirming the pathway selectivity of compounds, additional downstream assays can be performed to map the specific signal transduction pathway inhibited by the compounds. In this regard, various antibody reagents are commercially available for assessing the status of the three major pathways known to be activated by ER stress: (1) PERK, (2) Ire1, and (3) ATF6 (Xu et al., J. Clinical Invest., 115:2656-2664, 2005). Immunoblotting experiments can be performed to assess the expression or phosphorylation (using phospho-specific antibodies) of marker proteins in these pathways. […] CSM 14.1 cells were cultured with DMSO or with 25 μM of hit compounds for two hours, followed by treatment of thapsigargin (15 μM). Cell lysates were prepared and analyzed by SDS-PAGE/immunoblotting using antibodies specific for phospho-c-Jun, phospho-eIF2α, phospho-p38 MAPK, and tubulin (a loading control). CSM14.1 cells were cultured with either DMSO or one of the active compounds at 1, 5, and 10 μM, followed two hours later by 15 μM TG. After two hrs, cell lysates were prepared, normalized for protein content, and either analyzed by SDS-PAGE/immunoblotting using anti-p38-MAPK pan-reactive antibody or phospho-specific antibody with ECL-based detection, followed by densitometry analysis of x-ray films, normalizing phosphor-p38 MAPK relative to total p38 MAPK, or analyzed using a meso-scale instrument from MSD and a procedure in which total p38 MAPK is captured on plates, and the relative amounts of phosphorylated protein were determined using phospho-specific antibody (MSD catalog #K15112D1). […] Suppression of p38 MAPK and c-Jun phosphorylation was dose-dependent, and could not be explained by a decline in total levels of these proteins. […] Proteolytic processing of ATF6 was also not inhibited by our hit compounds. […] Screens of other libraries (such as the NIH compound collection) may yield cytoprotective compounds with different mechanisms.
1) CSM14.1 cells were plated at a density of 2×10^5 cells/well at 6 well dish (Greiner Bio one) in DMEM containing 2% FBS and antibiotics.
2) After overnight incubation, cells were treated by DMSO (0.5%) or compounds (25 μM) for two hours, followed by TG (15 uM) treatment.
3) After two hours, cells were lyzed in 250 uL of lysis buffer and subjected to protein concentration decision, and to SDS PAGE/Western blotting using antibodies specific for phospho p38 MAPK (Cell signaling 9211), p38 MAPK (Santa Cruz-C20), phospho c-Jun (Cell signaling 9164), c-Jun (Santa Cruz-SC 1694), phospho eIF2α (Cell signaling 3597) and α-tubulin.
CSM 14.1 cells were cultured with DMSO or with 25 μM of hit compounds for two hours followed by treatment with thapsigargin (15 μM). Cell lysates were prepared and analyzed by SDS-PAGE/immunoblotting using antibodies specific for: c-Jun, phosphor-c-Jun (ser 73), eIF2a, phosphor-eIF2a (ser 51), p38 MAPK, phosphor-p38 MAPK (Thr180/Tyr182), ATF-6, CHOP and tubulin (loading control). ER stress-induced activation of C-Jun and p38 MAPK is suppressed by the 11 hit compounds.
CSM cells were treated with two compounds at increasing doses. Pre-incubation time, thapsigargin treatment, cell extract preparation and immunoblotting protocols were as described previously.

[1] = system: ASK1 (ser 967, ser 83, thr 845); test: Phosphorylation of ASK1 sites in ASK1-transfected 293T cells (immunoblotting); format: cell-based; details: ASK1-transfected 293T; for Phosphorylation of ASK1 at ser 967: 100 μM compound, two hours; for Phosphorylation of ASK1 at ser 83 and thr 845: up to 100 μM
Protocol: Phosphorylation of ASK1 at various sites was inspected. 293T cells were transfected with pcDNA-ASK1-HA. One day later, cells were incubated with DMSO (0.4%) or 100 μM compound 6239507 (#1) for two hours. Cell extracts were prepared using lysis buffer and were subjected to immunoblotting using anti-phospho ASK1 antibodies or anti HA antibody as indicated (A). The relative density of each phosphorylated ASK band was calculated by imageJ software (B). In (C), compounds from (A) were compared in activity against thapsigargin-induced cell death. […] (D) 293T cells were transfected with pcDNA-ASK1-HA and pEBG-GST-14-3-3. One day later cells were incubated with DMSO (0.4%) or 100 μM of the indicated compound for two hours. Then cells were treated with thapsigargin (20 μM) for the indicated time. Cell extracts were prepared using lysis buffer, and 14-3-3 proteins were immunoprecipitated with […] sepharose beads. ASK1 protein binding with 14-3-3 was visualized by immunoblotting using anti-HA antibody. Anti-phospho ASK1 (ser967) antibody was used to detect phosphorylation of ASK1 at each time point.
Thus, while not directly inhibiting ASK1 kinase activity, these events are predicted to reduce ASK1 in vivo kinase activity. It is possible that compound 5962123 inhibits a protein phosphatase that regulates phosphorylation of Ser967.
Suppression of thapsigargin-induced phosphorylation of p38MAPK was also measured by a quantitative ELISA-methods, with IC50 for p38MAPK phosphorylation estimated at <5 μM. In contrast, thapsigargin-induced expression of CHOP, expression of ATF4, proteolytic processing of ATF6, phosphorylation of eIF2a (Ser 51), auto-phosphorylation of Ire1a or auto-phosphorylation of ASK1 were not inhibited directly by CID-2878746 at concentrations up to 50 μM tested by in vitro kinase assay using p32-γ-ATP substrate. […] Thapsigargin-induced reductions in phosphorylation of ASK1 at the serine 967 site in ASK1 transfected 293T cells are inhibited by compound 5962123 at concentrations of 50-100 μM, as determined by immunoblotting using anti-phospho-specific (ser 967) antibody, but thapsigargin-induced changes in phosphorylation of ASK1 at ser 83 and thr 845 are not modulated by compound 5962123 at concentrations as high as 100 μM in ASK1-transfected HEK293T cells.
Experiments were also performed to determine whether compound 6239507 enhances phosphorylation of ASK1 at Ser 967 before and after ER stress induction (i.e., thapsigargin treatment). 293T cells were transfected with pcDNA-ASK1-HA. One day later, cells were incubated with DMSO (0.4%) or 100 μM compound 6239507 (#1) for two hours. Then cells were treated with thapsigargin (20 μM) for the indicated times. Cell extracts were prepared by lysis buffer and were subjected to immunoblotting with anti-phospho ASK1 Ser967 antibody or anti HA antibody. The relative density of phosphor ser967 bands were calculated by imageJ software (mean ±SD).
The ser 967 site of ASK1 is known to down-regulate ASK1 activity by phosphorylation (Goldman et al., J. Biol. Chem. 279:10442-10449, 2004) via 14-3-3 binding. […] 293T cells were transfected with pcDNA-ASK1-HA. One day later, cells were incubated with DMSO (0.4%) or 100 μM compound 6239507 (#1) for two hours. Cell extracts were prepared using lysis buffer and were subjected to immunoblotting using anti-phospho ASK1 antibodies or anti HA antibody as indicated. The relative density of each phosphorylated ASK band was calculated by imageJ software. The compounds were compared in activity against thapsigargin-induced cell death. 293T cells were transfected with pcDNA-ASK1-HA and pEBG-GST-14-3-3. One day later cells were incubated with DMSO (0.4%) or 100 μM of the indicated compound for two hours. Then cells were treated with thapsigargin (20 μM) for the indicated time. Cell extracts were prepared using lysis buffer, and 14-3-3 proteins were immunoprecipitated with […] sepharose beads. […]

[2] = one value given, read-out: IC50
[3] = first assay, read-out: IC50 (μM), first value
[4] = second assay (value in bold), read-out: IC50 (μM), value from a second assay

Row | SMILES | Activity against thapsigargin-induced cell death / cell protection (CSM14.1 cells) | IC50 (CSM14.1 cells; [2]) | Thapsigargin-induced phosphorylation of c-Jun (phospho-c-Jun) | IC50 (CSM14.1 cells; [3]) | IC50 (CSM14.1 cells; [4]) | Phosphorylation of ASK1 at ser 967 [1] | Phosphorylation of ASK1 at ser 83 and thr 845 [1] | IC50 (CSM14.1 cells; Rattus norvegicus, one value given, read-out: IC50)
1 | COc1ccc(C2CC(=O)C3=C(C2)Nc2ccccc2NC3c2cccc(O)c2)cc1 (stereo not drawn) [Compound 6048163] | inactive in cell protection; also recorded: not potent as an inhibitor of cell death | > 200 µM | fail to suppress |  |  |  |  | 
2 | CCOc1cc(C2Nc3ccccc3NC3=C2C(=O)CC(c2ccc(OC)cc2)C3)cc(Cl)c1O (stereo not drawn) [Compound 6049448] |  | 23.7 ± 0.642 µM |  | 24.8 ± 2.03 µM | 23.7 ± 0.642 µM | enhanced phosphorylation of ser 967 only | not ser 83 or thr 845 | 
3 | COc1ccc(C2CC(=O)C3=C(C2)Nc2ccccc2NC3c2ccncc2)cc1OC (stereo not drawn) [Compound 6075841] | inactive | > 200 µM | fail to suppress |  |  |  |  | 
4 | CCCOc1ccc(C2Nc3ccccc3NC3=C2C(=O)CC(c2ccc(OC)c(OC)c2)C3)cc1 (stereo not drawn) [Compound 6237877] |  | 12.5 ± 0.17 µM | dose-dependent decrease | 16.3 ± 0.439 µM | 12.5 ± 0.17 µM |  |  | 
5 | COc1ccc(C2CC(=O)C3=C(C2)Nc2ccccc2NC3c2cc(C)ccc2C)cc1 (stereo not drawn) [Compound 6238767] |  | 12.5 ± 0.177 µM |  | 13.3 ± 1.17 µM | 12.5 ± 0.177 µM | enhanced phosphorylation of ser 967 only | not ser 83 or thr 845 | 
6 | COc1ccc(C2CC(=O)C3=C(C2)Nc2ccccc2NC3c2ccccc2C)cc1OC (stereo not drawn) [Compound 6369841, 3-(3,4-dimethoxyphenyl)-11-(2-methylphenyl)-2,3,4,5,10,11-hexahydro-1H-dibenzo[b,e][1,4]diazepin-1-one] |  |  |  |  |  |  |  | 36.5 ± 2.19 µM
